# Source: patent US12419931B2, “Anti-cancer composition” (ACUPHARM INTERNATIONAL PROPRIETARY LIMITED, priority 2020, dated 2025)
# Tested on: cultured tissue from needle biopsy, Breast DCIS papillary neoplasm
# Assay: dose response study with cumulative cell death on cultured patient biopsy tissue (patient 19055)
# Assay type: cell-based, human
# Conditions: in vitro cultured biopsy sample, patient 19055, Breast DCIS papillary neoplasm
# Method: Comparative studies were performed using curcumin extract as described above (referred to as ACPJL 08), Sutherlandia leaf extract in water (referred to as ACPJL 35), Sutherlandia leaf extract in 50% ethanol and water solution (referred to as ACPJL 28), Sutherlandia leaf extract in 90% ethanol and water solution (referred to as ACPJL 07) and a combinatorial formulation using the curcumin extract and Sutherlandia leaf extract in water and alcohol according to this invention (referred to as ACPJL 20). These extracts were compared to a number of known botanical isolates with anti-cancer activity, as well as a number of known anti-cancer drugs, using a dose response design with cumulative cell death as the dependent variable. These studies were conducted on in vitro samples of cultured tissue, taken as biopsy samples from patients as part of a standard culture and testing process done in order to optimise treatment.
# A representative sample of such a study is provided herein below.
# Summary of Study of Patient with Assigned Number 19055
# Patient from whom sample was obtained was a person presenting with a diagnosis of Breast DCIS papillary neoplasm. The sample was obtained via needle biopsy, before being cultured.
row,SMILES,overall assessment in standard culture and testing process
1,COc1cc2c(Oc3ccc4[nH]c(C)cc4c3F)ncnc2cc1OCCCN1CCCC1 [Cediranib],potential benefit
2,Nc1nc(Cl)nc2c1ncn2[C@@H]1O[C@H](CO)[C@@H](O)[C@@H]1F [Clofarabine],potential benefit
3,CC(=O)O[C@@]12CO[C@@H]1C[C@H](O)[C@@]1(C)C(=O)[C@H](O)C3=C(C)[C@@H](OC(=O)[C@H](O)[C@@H](NC(=O)OC(C)(C)C)c4ccccc4)C[C@@](O)([C@@H](OC(=O)c4ccccc4)[C@H]21)C3(C)C [Docetaxel],potential benefit
4,COc1cc2ncnc(Nc3ccc(F)c(Cl)c3)c2cc1OCCCN1CCOCC1 [Gefitinib],potential benefit
5,O=C1c2c(O)ccc(O)c2C(=O)c2c(NCCNCCO)ccc(NCCNCCO)c21 [Mitoxantrone],potential benefit
6,COC(=O)c1ccc2c(c1)NC(=O)/C2=C(\Nc1ccc(N(C)C(=O)CN2CCN(C)CC2)cc1)c1ccccc1 [Nintedanib],good efficacy and a positive dose response curve
7,CC(=O)O[C@H]1C(=O)[C@@]2(C)[C@H]([C@H](OC(=O)c3ccccc3)[C@]3(O)C[C@H](OC(=O)[C@H](O)[C@@H](NC(=O)c4ccccc4)c4ccccc4)C(C)=C1C3(C)C)[C@]1(OC(C)=O)CO[C@@H]1C[C@@H]2O [Paclitaxel],potential benefit
8,CC[C@]1(O)C[C@H]2CN(CCc3c([nH]c4ccccc34)[C@@](C(=O)OC)(c3cc4c(cc3OC)N(C=O)[C@H]3[C@@](O)(C(=O)OC)[C@H](OC(C)=O)[C@]5(CC)C=CCN6CC[C@]43[C@@H]65)C2)C1 [Vincristine],potential benefit
9,CCC1=C[C@@H]2CN(C1)Cc1c([nH]c3ccccc13)[C@@](C(=O)OC)(c1cc3c(cc1OC)N(C)[C@H]1[C@@](O)(C(=O)OC)[C@H](OC(C)=O)[C@]4(CC)C=CCN5CC[C@]31[C@@H]54)C2 [Vinorelbine],potential benefit
10,O=C(CCCCCCC(=O)Nc1ccccc1)NO [Vorinostat],potential benefit
